{"source": "ChEMBL document CHEMBL5046231", "about": "“Modulation of Naturally Occurring Linear Dipeptide Chirality to Reduce the Affinity for Oligopeptide Transporter 1 and Increase Intestinal Stability for an Enhanced Colon-Targeting Effect in the Treatment of Inflammatory Bowel Disease: An Application of trans-4-l-Hydroxyprolyl-l-serine” (J Med Chem, 2022)", "key": {"[1]": {"assay": "Metabolic stability in DSS-induced C57BL/6 mouse colon assessed as half life measured up to 12 hrs by HPLC analysis", "type": "ADME, tissue-based"}, "[2]": {"assay": "Toxicity in healthy C57BL/6 mouse assessed as histological changes in kidney at 100 mg/kg, po administered for 10 days by H and E staining based assay", "type": "organism-based", "details": "in vivo, 240 h, time 10 day"}, "[3]": {"tested_on": "Mus musculus", "assay": "Anti-colitis activity against DSS-induced colitis in C57BL/6 mouse model assessed as decrease in MPO level in colon at 25 mg/kg, po administered via gavage twice a day for 10 days", "type": "functional", "parameters": "scale not given: the % may be the effect or the level left", "details": "time 10 day"}, "[4]": {"assay": "Cmax in DSS-induced colitis C57BL/6 mouse model at 25 mg/kg, po measured up to 6 hrs by UPLC-MS/MS analysis", "type": "ADME, organism-based", "parameters": "route oral, dose 25 mg/kg, time <=6", "details": "in vivo"}, "[5]": {"assay": "Toxicity in healthy C57BL/6 mouse assessed as histological changes in heart at 100 mg/kg, po administered for 10 days by H and E staining based assay", "type": "organism-based", "details": "in vivo, 240 h, time 10 day"}, "[6]": {"assay": "Metabolic stability in DSS-induced C57BL/6 mouse jejunum assessed as half life measured up to 12 hrs by HPLC analysis", "type": "ADME, tissue-based"}, "[7]": {"assay": "Stability in simulated gastric fluid at pH 1.2 assessed as half life measured up to 12 hrs by HPLC analysis", "type": "ADME"}, "[8]": {"tested_on": "Mus musculus", "assay": "Anti-colitis activity against DSS-induced C57BL/6 mouse model of colitis assessed as fold change in disease activity index at 25 to 100 mg/kg, po administered via gavage twice a day for 10 days relative to SASP", "type": "functional", "details": "dose 25-100 mg/kg; time 10 day"}, "[9]": {"assay": "Toxicity in healthy C57BL/6 mouse assessed as histological changes in spleen at 100 mg/kg, po administered for 10 days by H and E staining based assay", "type": "organism-based", "details": "in vivo, 240 h, time 10 day"}, "[10]": {"biological_target": "T1, Solute carrier family 15 member 1 (Homo sapiens, UniProt P46059)", "T1 sequence (P46059 whole entry)": "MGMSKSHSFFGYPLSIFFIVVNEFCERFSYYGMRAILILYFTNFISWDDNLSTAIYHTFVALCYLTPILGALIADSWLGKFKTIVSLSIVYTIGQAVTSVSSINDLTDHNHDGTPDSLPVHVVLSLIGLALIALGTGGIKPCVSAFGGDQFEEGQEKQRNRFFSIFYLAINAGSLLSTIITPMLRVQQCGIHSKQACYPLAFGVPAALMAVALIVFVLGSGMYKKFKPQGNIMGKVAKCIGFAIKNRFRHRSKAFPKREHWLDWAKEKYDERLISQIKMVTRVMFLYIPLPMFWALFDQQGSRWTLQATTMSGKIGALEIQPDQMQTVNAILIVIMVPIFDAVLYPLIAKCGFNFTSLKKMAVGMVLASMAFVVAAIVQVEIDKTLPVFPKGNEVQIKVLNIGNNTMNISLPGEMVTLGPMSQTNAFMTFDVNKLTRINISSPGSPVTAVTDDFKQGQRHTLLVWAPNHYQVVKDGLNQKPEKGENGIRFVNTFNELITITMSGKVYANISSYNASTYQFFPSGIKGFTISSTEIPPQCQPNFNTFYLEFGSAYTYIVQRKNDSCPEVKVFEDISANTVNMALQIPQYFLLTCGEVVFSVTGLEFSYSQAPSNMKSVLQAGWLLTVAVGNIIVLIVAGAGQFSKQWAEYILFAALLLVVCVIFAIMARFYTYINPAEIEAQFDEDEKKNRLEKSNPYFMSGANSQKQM", "assay": "Substrate activity at PEPT1 in human Caco-2 cells assessed as inhibition of Gly-Sar substrate uptake by UPLC-MS/MS analysis", "type": "cell-based", "details": "human, caco-2"}, "[11]": {"assay": "Metabolic stability in healthy C57BL/6 mouse jejunum assessed as half life measured up to 12 hrs by HPLC analysis", "type": "ADME, tissue-based"}, "[12]": {"tested_on": "Mus musculus", "assay": "Anti-colitis activity against DSS-induced colitis in C57BL/6 mouse model assessed as decrease in MPO level in colon at 50 mg/kg, po administered via gavage twice a day for 10 days", "type": "functional", "parameters": "scale not given: the % may be the effect or the level left", "details": "time 10 day"}, "[13]": {"assay": "AUC (0 to 6 hrs) in healthy C57BL/6 mouse at 25 mg/kg, po measured up to 6 hrs by UPLC-MS/MS analysis", "type": "ADME, organism-based", "parameters": "route oral, dose 25 mg/kg, time <=6", "details": "in vivo"}, "[14]": {"assay": "Chemical stability in phosphate buffer at pH 6.8 assessed as half life measured up to 12 hrs by HPLC analysis", "type": "physicochemical"}, "[15]": {"assay": "Metabolic stability in healthy C57BL/6 mouse liver assessed as half life measured up to 12 hrs by HPLC analysis", "type": "ADME, tissue-based"}, "[16]": {"tested_on": "Mus musculus", "assay": "Anti-colitis activity against DSS-induced C57BL/6 mouse model of colitis assessed as decrease in MPO level in colon at 100 mg/kg, po administered via gavage twice a day for 10 days", "type": "functional", "parameters": "scale not given: the % may be the effect or the level left", "details": "time 10 day"}, "[17]": {"assay": "Metabolic stability in healthy C57BL/6 mouse plasma assessed as half life measured up to 12 hrs by HPLC analysis", "type": "ADME, cell-free"}, "[18]": {"tested_on": "Mus musculus", "assay": "Anti-colitis activity against DSS-induced colitis in C57BL/6 mouse model assessed as fold decrease in disease activity index at 25 mg/kg, po administered via gavage twice daily for 10 days relative to control", "type": "functional", "details": "time 10 day"}, "[19]": {"tested_on": "Mus musculus", "assay": "Anti-colitis activity against DSS-induced C57BL/6 mouse model of colitis assessed as restoration of intestinal barrier function by measuring fold increase in FITC-dextran level in plasma at 25 mg/kg, po administered via gavage twice a day for 10 days followed by FITC-dextran addition and measured after 4 hrs", "type": "functional", "details": "time 10 day"}, "[20]": {"assay": "Tmax in DSS-induced colitis C57BL/6 mouse model at 25 mg/kg, po measured up to 6 hrs by UPLC-MS/MS analysis", "type": "ADME, organism-based", "details": "in vivo"}, "[21]": {"assay": "Metabolic stability in DSS-induced C57BL/6 inflammatory mouse model colonic flora homogenate assessed as half life measured up to 12 hrs by HPLC analysis", "type": "ADME", "details": "C57BL/6, mouse"}, "[22]": {"tested_on": "Mus musculus", "assay": "Anti-colitis activity against DSS-induced colitis in C57BL/6 mouse model assessed as assessed as recovery of body weight at 25 mg/kg, po administered via gavage twice daily for 10 days", "type": "functional, organism-based", "details": "time 10.0 day"}, "[23]": {"assay": "Stability in simulated intestinal fluid at pH 6.8 assessed as half life measured up to 12 hrs by HPLC analysis", "type": "ADME"}, "[24]": {"assay": "Cmax in healthy C57BL/6 mouse at 25 mg/kg, po measured up to 6 hrs by UPLC-MS/MS analysis", "type": "ADME, organism-based", "parameters": "route oral, dose 25 mg/kg, time <=6", "details": "in vivo"}, "[25]": {"tested_on": "Mus musculus", "assay": "Antiinflammatory activity in DSS-induced C57BL/6 mouse model of colitis assessed as decrease in […] level 25 to 100 mg/kg, po administered via gavage twice a day for 10 days", "type": "functional, organism-based", "details": "dose 25-100 mg/kg, time 10.0 day"}, "[26]": {"assay": "Toxicity in healthy C57BL/6 mouse assessed as histological changes in liver at 100 mg/kg, po administered for 10 days by H and E staining based assay", "type": "organism-based", "details": "in vivo, 240 h, time 10 day"}, "[27]": {"assay": "Metabolic stability in healthy C57BL/6 mouse colonic flora homogenate assessed as half life measured up to 12 hrs by HPLC analysis", "type": "ADME"}, "[28]": {"tested_on": "Mus musculus", "assay": "Antiinflammatory activity in DSS-induced C57BL/6 mouse model of colitis assessed as decrease in IL-1beta level 25 to 100 mg/kg, po administered via gavage twice a day for 10 days", "type": "functional, organism-based", "details": "dose 25-100 mg/kg, time 10.0 day"}, "[29]": {"tested_on": "Mus musculus", "assay": "Anti-colitis activity against DSS-induced colitis in C57BL/6 mouse model assessed as increase in colon length at 25 mg/kg, po administered via gavage twice daily for 10 days", "type": "functional, organism-based", "details": "time 10.0 day"}, "[30]": {"assay": "Stability in human Caco-2 cells homogenate assessed as half life measured up to 12 hrs by HPLC analysis", "type": "ADME, cell-based", "details": "Caco-2 cell homogenate"}}, "note": "The source made the active and inactive calls. The rule behind the calls is not given here."}
{"smiles": "O=C(O)[C@@H](CO)NC(=O)[C@H]1C[C@@H](O)CN1", "values": [{"measurement": "half-life", "setting": "[1]", "result": "> 12", "unit": "h"}, {"measurement": "Activity", "setting": "[2]", "result": "Non-Toxic"}, {"measurement": "Activity", "setting": "[3]", "result": 72.8, "unit": "%"}, {"measurement": "Cmax", "setting": "[4]", "result": 24, "unit": "µM"}, {"measurement": "Activity", "setting": "[5]", "result": "Non-Toxic"}, {"measurement": "half-life", "setting": "[6]", "result": "> 12", "unit": "h"}, {"measurement": "half-life", "setting": "[7]", "result": "> 12", "unit": "h"}, {"measurement": "fold change (FC)", "setting": "[8]", "result": 2.3}, {"measurement": "Activity", "setting": "[9]", "result": "Non-Toxic"}, {"measurement": "inhibition (INH)", "setting": "[10]", "result": "Not Active"}, {"measurement": "half-life", "setting": "[11]", "result": "> 12", "unit": "h"}, {"measurement": "Activity", "setting": "[12]", "result": 47.5, "unit": "%"}, {"measurement": "AUC", "setting": "[13]", "result": 16.61, "unit": "microM/L.hr"}, {"measurement": "half-life", "setting": "[14]", "result": "> 12", "unit": "h"}, {"measurement": "half-life", "setting": "[15]", "result": "> 12", "unit": "h"}, {"measurement": "Activity", "setting": "[16]", "result": 59.7, "unit": "%"}, {"measurement": "half-life", "setting": "[17]", "result": "> 12", "unit": "h"}, {"measurement": "fold change (FC)", "setting": "[18]", "result": 1.5}, {"measurement": "fold change (FC)", "setting": "[19]", "result": 10.7}, {"measurement": "Tmax", "setting": "[20]", "result": 4, "unit": "h"}, {"measurement": "half-life", "setting": "[21]", "result": "> 12", "unit": "h"}, {"measurement": "Activity", "setting": "[22]", "result": "Active"}, {"measurement": "half-life", "setting": "[23]", "result": "> 12", "unit": "h"}, {"measurement": "Cmax", "setting": "[24]", "result": 5.79, "unit": "µM"}, {"measurement": "Activity", "setting": "[25]", "result": "Active"}, {"measurement": "Activity", "setting": "[26]", "result": "Non-Toxic"}, {"measurement": "half-life", "setting": "[27]", "result": "> 12", "unit": "h"}, {"measurement": "Activity", "setting": "[28]", "result": "Active"}, {"measurement": "Activity", "setting": "[29]", "result": "Active"}, {"measurement": "half-life", "setting": "[30]", "result": "> 12", "unit": "h"}]}
